# According to patent US10513521B2, “Compositions and methods for inhibiting BMP” (The Brigham and Women's Hospital, Inc., priority 2014, dated 2019):
# Values joined by “and” are separate entries in the source; they are usually repeats but may differ in a detail not shown here. Identical values can stand only once.
# Biological target: T1, ALK2 (Mus musculus, UniProt P37172)
# T1 construct: The C2C12 cell line was selected for the measurement of ALK2 activity using BMP6 as the agonist; host or cells: C2C12
# T1 sequence (P37172 21-509): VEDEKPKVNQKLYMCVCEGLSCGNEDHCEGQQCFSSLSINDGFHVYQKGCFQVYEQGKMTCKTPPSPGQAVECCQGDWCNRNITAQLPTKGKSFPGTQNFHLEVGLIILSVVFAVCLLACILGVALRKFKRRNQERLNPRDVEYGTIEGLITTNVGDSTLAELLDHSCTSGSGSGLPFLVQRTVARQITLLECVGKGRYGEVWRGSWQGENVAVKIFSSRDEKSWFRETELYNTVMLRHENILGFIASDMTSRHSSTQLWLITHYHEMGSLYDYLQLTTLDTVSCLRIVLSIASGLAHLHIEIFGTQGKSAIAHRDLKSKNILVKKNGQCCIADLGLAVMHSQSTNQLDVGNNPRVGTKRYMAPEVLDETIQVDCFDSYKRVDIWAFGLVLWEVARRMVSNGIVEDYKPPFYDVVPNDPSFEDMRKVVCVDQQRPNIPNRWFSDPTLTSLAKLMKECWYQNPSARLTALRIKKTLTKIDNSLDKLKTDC
# Test: In-cell Western ALK2 assay (C2C12 cells, BMP6 as agonist)
# Assay type: cell-based
# Details: read-out: BMP6 ICW
# Text: 3. In-Cell Western ALK1 and ALK2 Assays in 384-Well Plate Format.
# We also optimized cell-based In-cell Western assays for measurements of ALK1 and ALK2 activities that were used to determine compound activities in these two kinases. The cell lines and agonists used were same as described in above cell-based HTRF ALK1 and ALK2 assays. The initial cell plating and compound treatment were also same. The main difference is the detection of phosphorylation status of SMAD1. In t-cell Western assay, the cells were fixed and phosphorylation status of SMAD1 was detected by the ELISA instead of using the HTRF assay kit in above assay.
# HyClone Fetal Bovine Serum was obtained from GE healthcare life sciences (Logan, Utah). BMP6 and BMP9 were purchased from R&D System (R&D). Anti-P-SMAD 1/5/8 rabbit mAb and anti-rabbit IgG, HRP-Linked antibody were purchased from Cell Signaling Technology (Danvers, Mass.). BioFX Chemiluminescent Ultra-Sensitive HRP Microwell Substrate ECL Reagent was obtained from SurModics (Edina, Minn.). The compound plates and the white solid MB assay plates were from Greiner Bio-one (Monroe, N.C.).
# Similarly as described in above HTRF cell-based assay, this assay was performed in 384 well plate format. […] Pre-starved cells were then plated in 384 well plate in the starvation medium (containing in 0.1% FBS). After 4 hours, compound dilutions in DMSO were added to the assay plate and incubated for 30 minutes. The assay plate was then added with BMP6 for C2C12 cells or BMP9 for BAOEC cells and incubated for 30 minutes.
# The cells were washed in the plate washer with PBS and blocked with 2% BSA in PBS for 1 h at room temperature on the rotator. After removing the blocking reagent, the cells were incubated with the anti-p-SMAD1 antibody in 2% BSA in PBS for overnight at 4° C. on rotator. The cells were washed with PBS in the plate washer and incubated with HRP conjugated second antibody in 2% BSA in PBS for 1 hour at room temperature. After a cell wash with PBS, ECL detection reagent was added and the plate was read in the luminesce mode in the ViewLux plate reader.
row,Structure (SMILES),IC50
1,"NS(=O)(=O)c1ccc(-c2cnn3cc(-c4ccc(CCN5CCCCC5)cc4)cnc23)c2ccccc12 [Compound 54, 4-(6-(4-(2-(piperidin-1-yl)ethyl)phenyl)pyrazolo[1,5-a]pyrimidin-3-yl)naphthalene-1-sulfonamide]",240 nM and 300 nM and 170 nM and 160 nM
2,"CC[S+](=O)([O-])c1cccc(-c2cnn3cc(-c4ccc(N5[C@H](C)CNC[C@@H]5C)cc4)cnc23)c1 [Compound 104, 6-(4-((2R,6S)-2,6-dimethylpiperazin-1-yl)phenyl)-3-(3-(ethylsulfonyl)phenyl)pyrazolo[1,5-a]pyrimidine]",96 nM and 70 nM
3,C[S+](=O)([O-])c1cccc(-c2cnn3cc(-c4ccc(OCCN5CCCCC5)cc4)cnc23)c1 [Compound 109],190 nM and 300 nM
4,"C[C@@H]1CNC[C@H](C)N1c1ccc(-c2cnc3c(-c4cccc([S+](=O)([O-])C5CC5)c4)cnn3c2)cc1 [Compound 111, 3-(3-(cyclopropylsulfonyl)phenyl)-6-(4-((2R,6S)-2,6-dimethylpiperazin-1-yl)phenyl)pyrazolo[1,5-a]pyrimidine]",180 nM and 170 nM
5,"CC(C)S(=O)(=O)c1cccc(-c2cnn3cc(-c4ccc(CCN5CCCCC5)cc4)cnc23)c1 [Compound 113, 3-(3-(isopropylsulfonyl)phenyl)-6-(4-(2-(piperidin-1-yl)ethyl)phenyl)pyrazolo[1,5-a]pyrimidine]",360 nM and 220 nM
6,"CC(C)S(=O)(=O)c1cccc(-c2cnn3cc(-c4ccc(N5[C@H](C)CNC[C@@H]5C)cc4)cnc23)c1 [Compound 114, 6-(4-((2R,6S)-2,6-dimethylpiperazin-1-yl)phenyl)-3-(3-(isopropylsulfonyl)phenyl)pyrazolo[1,5-a]pyrimidine]",110 nM and 88 nM
7,"CS(=O)(=O)c1cccc(-c2cnn3cc(-c4ccc(CN5CCCCC5)cc4)cnc23)c1 [Compound 123, 3-(3-(methylsulfonyl)phenyl)-6-(4-(piperidin-1-ylmethyl)phenyl)pyrazolo[1,5-a]pyrimidine]",300 nM and 100 nM
8,"CC(O)c1cccc(-c2cnn3cc(-c4ccc(OC5(CN6CCCCC6)CC5)cc4)cnc23)c1 (stereo not shown) [Compound 143, 1-(3-(6-(4-(1-(piperidin-1-ylmethyl)cyclopropoxy)phenyl)pyrazolo[1,5-a]pyrimidin-3-yl)phenyl)ethanol]",57 nM and 56 nM

# Test system: BMP4
# Test: BMP4 HTRF assay
# Assay type: cell-based
# Details: not given
row,Structure (SMILES),IC50 [nM]
1,"C[C@@H]1CNC[C@H](C)N1c1ccc(-c2cnc3c(-c4cccc5c(C(N)=O)cccc45)cnn3c2)cc1 [Compound 10, 5-(6-(4-((2S,6R)-2,6-dimethylpiperazin-1-yl)phenyl)pyrazolo[1,5-a]pyrimidin-3-yl)-1-naphthamide]",140
2,"C[C@@H]1CNC[C@H](C)N1c1ccc(-c2cnc3c(-c4cccc(S(C)(=O)=O)c4)cnn3c2)cc1 [Compound 82, 6-(4-((2R,6S)-2,6-dimethylpiperazin-1-yl)phenyl)-3-(3-(methylsulfonyl)phenyl)pyrazolo[1,5-a]pyrimidine]",180
3,"C[S+](=O)([O-])c1cccc(-c2cnn3cc(-c4ccc(OC5(CN6CCCCC6)COC5)cc4)cnc23)c1 [Compound 93, 3-(3-(methylsulfonyl)phenyl)-6-(4-((3-(piperidin-1-ylmethyl)oxetan-3-yl)oxy)phenyl)pyrazolo[1,5-a]pyrimidine]",100
4,"C[C@@H]1CNC[C@H](C)N1c1ccc(-c2cnc3c(-c4cccc(C(C)(C)O)c4)cnn3c2)cc1 [Compound 103, 2-(3-(6-(4-((2R,6S)-2,6-dimethylpiperazin-1-yl)phenyl)pyrazolo[1,5-a]pyrimidin-3-yl)phenyl)propan-2-ol]",130
5,"CC[S+](=O)([O-])c1cccc(-c2cnn3cc(-c4ccc(N5[C@H](C)CNC[C@@H]5C)cc4)cnc23)c1 [Compound 104, 6-(4-((2R,6S)-2,6-dimethylpiperazin-1-yl)phenyl)-3-(3-(ethylsulfonyl)phenyl)pyrazolo[1,5-a]pyrimidine]",230
6,"C[S+](=O)([O-])c1cccc(-c2cnn3cc(-c4ccc(OC5(Cn6ccnc6)COC5)cc4)cnc23)c1 [Compound 105, 6-(4-((3-((1H-imidazol-1-yl)methyl)oxetan-3-yl)oxy)phenyl)-3-(3-(methylsulfonyl)phenyl)pyrazolo[1,5-a]pyrimidine]",9

# Test system: not listed separately
# Test: Cell-based assay, TGFb1 (Cell IC50)
# Details: not given
row,Structure (SMILES),IC50 [nM]
1,"C[C@@H]1CNC[C@H](C)N1c1ccc(-c2cnc3c(-c4cccc5c(C(N)=O)cccc45)cnn3c2)cc1 [Compound 10, 5-(6-(4-((2S,6R)-2,6-dimethylpiperazin-1-yl)phenyl)pyrazolo[1,5-a]pyrimidin-3-yl)-1-naphthamide]",353
2,"N/C(=N/O)c1ccc(-c2cnn3cc(-c4ccc(N5CCNCC5)cc4)cnc23)c2ccccc12 [Compound 15, N′-hydroxy-4-(6-(4-(piperazin-1-yl)phenyl)pyrazolo[1,5-a]pyrimidin-3-yl)-1-naphthimidamide]",2660
3,"CC(C)(CN1CCCCC1)Oc1ccc(-c2cnc3c(-c4cccc5c(C(N)=O)cccc45)cnn3c2)cc1 [Compound 18, 5-(6-(4-((2-methyl-1-(piperidin-1-yl)propan-2-yl)oxy)phenyl)pyrazolo[1,5-a]pyrimidin-3-yl)-1-naphthamide]",270
4,"CC(O)c1cccc(-c2cnn3cc(-c4ccc(N5[C@H](C)CNC[C@@H]5C)cc4)cnc23)c1 (stereo partly drawn) [Compound 83, 1-(3-(6-(4-((2R,6S)-2,6-dimethylpiperazin-1-yl)phenyl)pyrazolo[5-a]pyrimidin-3-yl)phenyl)ethanol]",956
5,"C[S+](=O)([O-])c1cccc(-c2cnn3cc(-c4ccc(OC5(CN6CCCCC6)COC5)cc4)cnc23)c1 [Compound 93, 3-(3-(methylsulfonyl)phenyl)-6-(4-((3-(piperidin-1-ylmethyl)oxetan-3-yl)oxy)phenyl)pyrazolo[1,5-a]pyrimidine]",100000
